In patent US5834453A, “Methods for the manufacture and use of antimicrobial sterol conjugates” (Lehigh University, priority 1997, dated 1998):
In brackets after ≈: the same amount, converted by molar mass. Entries after “also recorded” stand apart in the source; their conditions may differ. Read-outs that look alike come from different tables or passages of the source.

Key:
E. faecalis (29212) = experiment: MIC, micro-broth dilution; format: cell-based; conditions: Enterococcus faecalis, 35° C., 24 hours, read-out: ANTIMICROBIAL ACTIVITY (MIC)
Experimental: (§1) The antimicrobial activity of the compounds according to the present invention were compared with the results obtained for squalamine as reported in Proc. Nat. Acad. Sci. USA 90:1354 (1993), supra, the disclosure of which is incorporated in toto herein. The data reported in the following table is the minimum inhibitory concentration (MIC) required for complete inhibition of microbial growth. The MIC was determined utilizing known micro-broth dilution methods in which inocula of 10^6 /ml of the test organism were incubated in 0.5× trypticase soy broth at 35° C. for 24 hours. MIC's were also tested under various pH conditions, with calcium chloride or magnesium chloride, or with immobilized horse serum.
(§2) The numbers in parentheses contained in the table correspond to accession numbers with the American Type Culture Collection (reference strains were either obtained from the American Type Culture Collection or from the Microbiology Laboratory at Memorial Sloan-Kettering Cancer Center; Bacterial strains were maintained on Columbia 5% sheep blood agar plates, and fungi were maintained on Sabouraud Dextrose agar plates).

S. aureus (29213) = experiment: MIC, micro-broth dilution; format: cell-based; conditions: Staphylococcus aureus, 24 h, read-out: ANTIMICROBIAL ACTIVITY (MIC)
Experimental: as §1, §2

P. aeruginosa (10145) = experiment: MIC, micro-broth dilution; format: cell-based; conditions: Pseudomonas aeruginosa, 35° C., 24 hours, read-out: ANTIMICROBIAL ACTIVITY (MIC)
Experimental: as §1, §2

S. pneumoniae (6305) = experiment: MIC, micro-broth dilution; format: cell-based; conditions: Streptococcus pneumoniae, 35° C., 24 hours, read-out: ANTIMICROBIAL ACTIVITY (MIC)
Experimental: as §1, §2

P. aeruginosa (2853) = experiment: MIC, micro-broth dilution; format: cell-based; conditions: Pseudomonas aeruginosa, 24 h, read-out: ANTIMICROBIAL ACTIVITY (MIC)
Experimental: as §1, §2

A. fumigatus (H29709) = experiment: MIC, micro-broth dilution; format: cell-based; conditions: Aspergillus fumigatus, 35° C., 24 hours, read-out: ANTIMICROBIAL ACTIVITY (MIC)
Experimental: as §1, §2

S. pyrogenes (19615) = experiment: MIC, micro-broth dilution; format: cell-based; conditions: 24 h, read-out: ANTIMICROBIAL ACTIVITY (MIC)
Experimental: as §1, §2

A. fumigatus (H1120) = experiment: MIC, micro-broth dilution; format: cell-based; conditions: Aspergillus fumigatus, 35° C., 24 hours, read-out: ANTIMICROBIAL ACTIVITY (MIC)
Experimental: as §1, §2

S. agalactiae (13813) = experiment: MIC, micro-broth dilution; format: cell-based; conditions: Streptococcus agalactiae, 35° C., 24 hours, read-out: ANTIMICROBIAL ACTIVITY (MIC)
Experimental: as §1, §2

S. aureus (25923) = experiment: MIC, micro-broth dilution; format: cell-based; conditions: Staphylococcus aureus, 35° C., 24 hours, read-out: ANTIMICROBIAL ACTIVITY (MIC)
Experimental: as §1, §2

E. faecium (T6480-9) = experiment: MIC, micro-broth dilution; format: cell-based; conditions: Enterococcus faecium, 35° C., 24 hours, read-out: ANTIMICROBIAL ACTIVITY (MIC)
Experimental: as §1, §2

C. neoformans (M68979) = experiment: MIC, micro-broth dilution; format: cell-based; conditions: Cryptococcus neoformans, 24 h, read-out: ANTIMICROBIAL ACTIVITY (MIC)
Experimental: as §1, §2

P. vulgaris (13315) = experiment: MIC, micro-broth dilution; format: cell-based; conditions: Proteus vulgaris, 35° C., 24 hours, read-out: ANTIMICROBIAL ACTIVITY (MIC)
Experimental: as §1, §2

E. coli (25922) = experiment: MIC, micro-broth dilution; format: cell-based; conditions: Escherichia coli, 35° C., 24 hours, read-out: ANTIMICROBIAL ACTIVITY (MIC)
Experimental: as §1, §2

E. cloacae (13047) = experiment: MIC, micro-broth dilution; format: cell-based; conditions: Enterobacter cloacae, 35° C., 24 hours, read-out: ANTIMICROBIAL ACTIVITY (MIC)
Experimental: as §1, §2

S. marcescens (13880) = experiment: MIC, micro-broth dilution; format: cell-based; conditions: for MIC: Serratia marcescens, 24 h, read-out: ANTIMICROBIAL ACTIVITY (MIC)
Experimental: as §1, §2

S. aureus (H20809) = experiment: MIC, micro-broth dilution; format: cell-based; conditions: Staphylococcus aureus, read-out: ANTIMICROBIAL ACTIVITY (MIC)
Experimental: as §1, §2

C. albicans (90028) = experiment: MIC, micro-broth dilution; format: cell-based; conditions: Candida albicans, 35° C., 24 hours, read-out: ANTIMICROBIAL ACTIVITY (MIC)
Experimental: as §1, §2

C. neoformans (90012) = experiment: MIC, micro-broth dilution; format: cell-based; conditions: Cryptococcus neoformans, 24 h, read-out: ANTIMICROBIAL ACTIVITY (MIC)
Experimental: as §1, §2

S. epidermidis (12228) = experiment: MIC, micro-broth dilution; format: cell-based; conditions: Staphylococcus epidermidis, 35° C., 24 hours, read-out: ANTIMICROBIAL ACTIVITY (MIC)
Experimental: as §1, §2

K. pneumoniae (13883) = experiment: MIC, micro-broth dilution; format: cell-based; conditions: Klebsiella pneumoniae, 24 h, read-out: ANTIMICROBIAL ACTIVITY (MIC)
Experimental: as §1, §2

[1] = Hemolytic activity, minimal hemolytic concentration (MHC); format: cell-based, sheep; conditions: sheep, red blood cells;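 note: MCC here is the minimal hemolytic concentration (MHC)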
Experimental: Hemolytic activity of the squalamine mimics according to the present invention were also studied by incubating sheep red blood cells for 24 hours at 37° C. in saline (final concentration of 0.5%) with or without respective concentrations of the squalamine mimics. The minimal hemolytic concentration (MHC) was determined as the lowest concentration of a mimic that raised visible hemolysis.

[2] = test system: various groups of microorganisms; experiment: Antimicrobial activity (MIC), all microorganisms tested; format: cell-based
Experimental: as §1, §2

| Structure (SMILES) | MIC (E. faecalis (29212)) [µg/mL] | MIC (S. aureus (29213)) [µg/mL] | MIC (P. aeruginosa (10145)) [µg/mL] | MIC (S. pneumoniae (6305)) [µg/mL] | MIC (P. aeruginosa (2853)) [µg/mL] | MIC (A. fumigatus (H29709)) [µg/mL] | MIC (S. pyrogenes (19615)) [µg/mL] | MIC (A. fumigatus (H1120)) [µg/mL] | MIC (S. agalactiae (13813)) [µg/mL] | MIC (S. aureus (25923)) [µg/mL] | MIC (E. faecium (T6480-9)) [µg/mL] | MIC (C. neoformans (M68979)) [µg/mL] | MIC (P. vulgaris (13315)) [µg/mL] | MIC (E. coli (25922)) [µg/mL] | MIC (E. cloacae (13047)) [µg/mL] | MIC (S. marcescens (13880)) [µg/mL] | MIC (C. albicans (90028)) [µg/mL] | MIC (C. neoformans (90012)) [µg/mL] | MIC (S. epidermidis (12228)) [µg/mL] | MIC (K. pneumoniae (13883)) [µg/mL] | other results |
| --- | --- | --- | --- | --- | --- | --- | --- | --- | --- | --- | --- | --- | --- | --- | --- | --- | --- | --- | --- | --- | --- |
| C[C@H](CCC(=O)NCCCNCCCCNCCCN)[C@H]1CC[C@H]2[C@@H]3CC[C@@H]4CCCC[C@]4(C)[C@H]3CC[C@]12C [SM-19] | 6.25 (≈ 11.5 µM) | 3.13 (≈ 5.74 µM) | > 100 | 0.78 (≈ 1.43 µM) | 12.5 (≈ 22.9 µM) | 3.13 (≈ 5.74 µM) | 3.13 (≈ 5.74 µM) | 3.13 (≈ 5.74 µM) | 3.13 (≈ 5.74 µM) | 3.13 (≈ 5.74 µM) | 3.13 (≈ 5.74 µM) | 0.78 (≈ 1.43 µM) | > 100 | 3.13 (≈ 5.74 µM) | > 100 | > 100 | 3.13 (≈ 5.74 µM) | 0.78 (≈ 1.43 µM) | 1.56 (≈ 2.86 µM) | 6.25 (≈ 11.5 µM) | MIC (S. aureus (H20809); 24 h): 3.13 µg/mL (≈ 5.74 µM); MCC at 24 h [1]: 6.25 µg/mL; antimicrobial activity (in words) [2]: highly active |
| C[C@H](CCC(=O)NCCNCCNCCN)[C@H]1CC[C@H]2[C@@H]3CC[C@@H]4C[C@H](O)CC[C@]4(C)[C@H]3CC[C@]12C [SM-27] | 12.5 (≈ 24.8 µM) | 6.25 (≈ 12.4 µM) | 25 (≈ 49.5 µM) | 3.13 (≈ 6.2 µM) | 12.5 (≈ 24.8 µM) | 100 (≈ 198 µM) | 1.56 (≈ 3.09 µM) | 100 (≈ 198 µM) | 3.13 (≈ 6.2 µM) | 6.25 (≈ 12.4 µM) | 12.5 (≈ 24.8 µM) | 3.13 (≈ 6.2 µM) | 12.5 (≈ 24.8 µM) | 3.13 (≈ 6.2 µM) | 25 (≈ 49.5 µM) | 12.5 (≈ 24.8 µM) | 25 (≈ 49.5 µM) | 3.13 (≈ 6.2 µM) | 3.13 (≈ 6.2 µM) | 6.25 (≈ 12.4 µM) | activity against S. marcescens (S. marcescens (13880); in words): found even against S. marcescens; also recorded: effective against S. marcescens; MIC (S. aureus (H20809); 24 h): 6.25 µg/mL (≈ 12.4 µM); MCC at 24 h [1]: 50 µg/mL |
| C[C@H](CCC(=O)NCCCNCCCCNCCCN)[C@H]1CC[C@H]2[C@@H]3C[C@H](O)[C@@H]4C[C@H](O)CC[C@]4(C)[C@H]3CC[C@]12C [SM-28] | 50 (≈ 86.7 µM) | 6.25 (≈ 10.8 µM) | 25 (≈ 43.3 µM) | 50 (≈ 86.7 µM) | 25 (≈ 43.3 µM) | 25 (≈ 43.3 µM) | 1.56 (≈ 2.7 µM) | 25 (≈ 43.3 µM) | 12.5 (≈ 21.7 µM) | 6.25 (≈ 10.8 µM) | 50 (≈ 86.7 µM) | 3.13 (≈ 5.43 µM) | 50 (≈ 86.7 µM) | 50 (≈ 86.7 µM) | > 100 | > 100 | 6.25 (≈ 10.8 µM) | 3.13 (≈ 5.43 µM) | 3.13 (≈ 5.43 µM) | > 100 | MIC (S. aureus (H20809); 24 h): 6.25 µg/mL (≈ 10.8 µM); MCC at 24 h [1]: > 100 µg/mL; antimicrobial activity (in words) [2]: lesser activity |
| C[C@H](CCC(=O)NCCNCCNCCN)[C@H]1CC[C@H]2[C@@H]3C[C@H](O)[C@@H]4C[C@H](O)CC[C@]4(C)[C@H]3CC[C@]12C [SM-32] | 100 (≈ 192 µM) | 25 (≈ 48 µM) | 50 (≈ 96 µM) | 25 (≈ 48 µM) | 25 (≈ 48 µM) | 50 (≈ 96 µM) | 12.5 (≈ 24 µM) | 50 (≈ 96 µM) | 25 (≈ 48 µM) | 25 (≈ 48 µM) | 100 (≈ 192 µM) | 25 (≈ 48 µM) | 50 (≈ 96 µM) | 25 (≈ 48 µM) | > 100 | > 100 | 25 (≈ 48 µM) | 25 (≈ 48 µM) | 25 (≈ 48 µM) | 50 (≈ 96 µM) | MIC (S. aureus (H20809); 24 h): 25 µg/mL (≈ 48 µM); MCC at 24 h [1]: > 100 µg/mL |
| C[C@H](CCC(=O)NCCCNCCCCNCCCN)[C@H]1CC[C@H]2[C@@H]3[C@H](OS(=O)(=O)O)C[C@@H]4C[C@H](OS(=O)(=O)O)CC[C@]4(C)[C@H]3CC[C@]12C [SM-35] | 6.25 (≈ 8.48 µM) | 6.25 (≈ 8.48 µM) | 25 (≈ 33.9 µM) | 3.13 (≈ 4.25 µM) | 12.5 (≈ 17 µM) | 25 (≈ 33.9 µM) | 3.13 (≈ 4.25 µM) | 25 (≈ 33.9 µM) | 6.25 (≈ 8.48 µM) | 6.25 (≈ 8.48 µM) | 6.25 (≈ 8.48 µM) | 12.5 (≈ 17 µM) | 25 (≈ 33.9 µM) | 6.25 (≈ 8.48 µM) | 12.5 (≈ 17 µM) | > 100 | 25 (≈ 33.9 µM) | 12.5 (≈ 17 µM) | 3.13 (≈ 4.25 µM) | 12.5 (≈ 17 µM) | MIC (S. aureus (H20809); S. aureus (H20809), 35° C., 24 hours): 8.25 µg/mL (≈ 11.2 µM); MCC at 24 h [1]: 6.25 µg/mL |
